Assay results: patent US20080004271A1, “Inhibitors of TNFalpha, PDE4 and B-RAF, compositions thereof and methods of use therewith” (priority 2006, published 2008)
pIC50: −log10 of the molar value.

Assays:
V600E mutant B-RAF = target: T1, V600E mutant B-RAF (Homo sapiens, UniProt P15056, V600E); assay: V600E Mutant B-RAF 33P Assay; format: biochemical
T1 construct: purchased Upstate
Method: Substrate (HIS-MEK1 K97M) is prepared by Celgene Corp. as described above.
Test compound is diluted in 100% DMSO (600 μM). […] Substrate mixture is prepared as 7.5 μM HIS-MEK1 K97M in assay buffer. ATP mixture is prepared as 300 μM ATP, 75 mM MgCl2, 0.05 μCi/μl ^33P ATP in assay buffer.
In a 96 well assay plate (Falcon Polylpropylene well U-bottom), the following are added to each well: 2.5 μl of test compound solution (serial dilutions), 20 μl of substrate mixture and 17.5 μl of enzyme mixture. The plate is incubated for at least 15 minutes. 10 μl of ATP mixture is added and the plate is incubated at room temperature for about 60 minutes. 80 μl of 12.5% TCA is added to each well, and the plate is incubated for at least 20 minutes. The contents of the plate is transferred to a glass fiber filter plate (Millipore) using a Packard Harvester (washing 10× with 1×PBS). 50 μl of Scintillation-20 fluid is added to each well. The plate is read using a Packard TopCount.

A375 cells = assay: Alamar Blue Viability Assay; format: cell-based; conditions: 3 days
Method: A375 cells (ATCC # CRL-1619; Passage 4˜15; doubling time is roughly 18 hours) are used. Culture medium is DMEM (high glucose, with L-glutamine)+10% FBS+Pen/Strep. Cells are passed every three days at 1:20.
200 μl of medium only is added into all wells along the edges of a 96-well flat bottom plate and 180 μl of cell suspension (containing 1,000 cells) per well is added into the plate with a Low Evaporation Lid (Costar Cat # 3595). The cells are cultured overnight. Compounds and controls are diluted according to standard compound dilution protocol described below. From 30 mM stock solution, 10 mM, 3 mM, 1 mM, and 0.3 mM solutions in 100% DMSO are prepared using the following serial dilution protocol:
The 30, 10, 3, 1 and 0.3 mM solutions are diluted 1:50 (DMSO:medium) by adding 4 μl of each to 196 μl of culture medium. This yields 600 μM, 200 μM, 60 μM, 20 μM, and 6 μM secondary stock solutions. 4 μl of DMSO are added to 196 μl medium for the DMSO control as well. 20 μl of compound dilutions, including the DMSO control locations (Row G, Columns 2-10 are DMSO control wells), are added in triplicate to the cells in the 96-well plate using a repeat pipettor (see plate layout below). This yields final concentrations of 60 μM, 20 μM, 6 μM, 2 μM, and 0.6 μM containing 0.2% DMSO in each well. The plate is gently tapped to evenly distribute compound within the well. The plate is incubated at 5% CO2 at 37° C. for 3 days.
20 μl of Alamar Blue (Biosource #DAL-1100) is added to each well. The plate is incubated in 5% CO2 incubator for 4 hours. Fluorescence is measured with excitation wavelength at 530 nm and emission wavelength at 590 nm using a Victor 2 multilabel plate reader (Perkin Elmer). Data is saved with plate format as a Text file and entered into ActivityBase (Cell-based SAR; Prolif-Alamar; MTT 5 plates unfixed fit) to calculate the percent of DMSO values for each compound set of triplicate wells and IC50 curves are plotted.

T1 sequence (P15056 whole entry V600E): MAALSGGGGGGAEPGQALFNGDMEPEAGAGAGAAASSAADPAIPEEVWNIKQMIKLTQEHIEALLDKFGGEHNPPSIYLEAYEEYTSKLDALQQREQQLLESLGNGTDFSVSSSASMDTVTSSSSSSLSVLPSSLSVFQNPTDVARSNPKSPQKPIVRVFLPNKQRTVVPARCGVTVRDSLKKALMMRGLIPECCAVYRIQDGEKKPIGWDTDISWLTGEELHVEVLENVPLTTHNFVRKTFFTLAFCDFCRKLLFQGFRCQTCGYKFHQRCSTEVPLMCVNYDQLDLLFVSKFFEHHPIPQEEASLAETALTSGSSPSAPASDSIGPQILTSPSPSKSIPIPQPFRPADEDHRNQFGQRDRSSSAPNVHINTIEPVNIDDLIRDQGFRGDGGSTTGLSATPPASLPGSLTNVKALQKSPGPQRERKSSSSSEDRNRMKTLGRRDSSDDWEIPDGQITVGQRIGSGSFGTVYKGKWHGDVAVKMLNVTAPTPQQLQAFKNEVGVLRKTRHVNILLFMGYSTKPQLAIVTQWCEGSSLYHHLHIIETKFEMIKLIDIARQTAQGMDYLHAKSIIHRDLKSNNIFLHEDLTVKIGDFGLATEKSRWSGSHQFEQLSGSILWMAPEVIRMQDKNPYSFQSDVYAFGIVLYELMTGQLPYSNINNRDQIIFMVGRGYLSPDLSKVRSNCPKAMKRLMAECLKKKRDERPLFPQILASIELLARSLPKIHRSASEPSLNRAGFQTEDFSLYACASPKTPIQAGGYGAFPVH

pIC50 (V600E mutant B-RAF)	pIC50 (A375 cells; Homo sapiens, A-375, 72 h)	pIC50 (A375 cells)	Compound
5.00 to 7.00	4.52 to 4.70	–	NC(=O)c1sc2nc(NC3CC3)nc(-c3ccc(OCc4ccccc4)nc3)c2c1N [Example 168]
4.22 to 4.52	< 4.22	–	NC(=O)c1sc2nc(NC3CC3)nc(-c3ccc(O)nc3)c2c1N [Example 170]
–	4.70 to 5.00	–	COc1cncc(-c2nc(N[C@@H](C)CO)nc3sc(C(N)=O)c(N)c23)c1 [Example 177]
5.00 to 7.00	4.70 to 5.00	–	CCc1cncc(-c2nc(NC(C)(C)CO)nc3sc(C(N)=O)c(N)c23)c1 [Example 178]
4.22 to 4.52	4.70 to 5.00	–	CC(C)(CO)Nc1nc(-c2cncc(OCc3ccccc3)c2)c2c(N)c(C(N)=O)sc2n1 [Example 179]
5.00 to 7.00	4.70 to 5.00	–	CC(C)(CO)Nc1nc(-c2cncc(O)c2)c2c(N)c(C(N)=O)sc2n1 [Example 180]
4.22 to 4.52	4.22 to 4.52	–	NC(=O)c1sc2nc(NC3CC3)nc(-c3ccccc3OCc3ccccc3)c2c1N [Example 182]
5.00 to 7.00	4.22 to 4.52	–	NC(=O)c1sc2nc(NC3CC3)nc(-c3ccccc3O)c2c1N [Example 183]
5.00 to 7.00	4.52 to 4.70	–	COc1cccc(-c2nc(N)nc3sc(C(N)=O)c(N)c23)c1 [Example 184]
5.00 to 7.00	4.52 to 4.70	–	NC(=O)c1sc2nc(NC3CC3)nc(-c3ccccc3F)c2c1N [Example 186]
5.00 to 7.00	4.52 to 4.70	–	NC(=O)c1sc2nc(NC3CC3)nc(-c3c(F)cccc3F)c2c1N [Example 187]
5.00 to 7.00	–	4.52 to 4.70	NC(=O)c1nc(-c2ccc(Cl)c(Cl)c2)c2c(N)c(C(N)=O)sc2n1 [Example 193]
5.00 to 7.00	–	4.70 to 5.00	CC(C)[C@H](CO)Nc1nc(-c2ccc(Cl)c(Cl)c2)c2c(N)c(C(N)=O)sc2n1 [Example 198]
5.00 to 7.00	4.70 to 5.00	–	CC(C)(C)Nc1nc(-c2ccc(Cl)c(Cl)c2)c2c(N)c(C(N)=O)sc2n1 [Example 209]
–	4.70 to 5.00	–	C[C@@H](CO)Oc1nc(-c2ccc(Cl)c(Cl)c2)c2c(N)c(C(N)=O)sc2n1 [Example 211]
5.00 to 7.00	< 4.22	–	C[C@H](O)[C@H](C)Oc1nc(-c2ccc(Cl)c(Cl)c2)c2c(N)c(C(N)=O)sc2n1 [Example 213]
5.00 to 7.00	4.70 to 5.00	–	CC(C)(O)CNc1nc(-c2ccc(Cl)c(Cl)c2)c2c(N)c(C(N)=O)sc2n1 [Example 215]
5.00 to 7.00	4.70 to 5.00	–	CC(C)(CN1CCCC1)Nc1nc(-c2ccc(Cl)c(Cl)c2)c2c(N)c(C(N)=O)sc2n1 [Example 216]
5.00 to 7.00	4.70 to 5.00	–	CC(O)CCNc1nc(-c2ccc(Cl)c(Cl)c2)c2c(N)c(C(N)=O)sc2n1 (centres unmarked) [Example 221]
5.00 to 7.00	–	–	CCCCNc1nc(-c2ccc(Cl)c(Cl)c2)c2c(N)c(C(N)=O)sc2n1 [Example 223]
5.00 to 7.00	5.00 to 7.00	–	NC(=O)c1sc2nc(NC3CNC3)nc(-c3ccc(Cl)c(Cl)c3)c2c1N [Example 227]
5.00 to 7.00	4.70 to 5.00	–	NC(=O)c1sc2nc(N[C@@H]3CCOC3)nc(-c3ccc(Cl)c(Cl)c3)c2c1N [Example 229]
5.00 to 7.00	4.70 to 5.00	–	COc1cc(-c2nc(NC3CC3)nc3sc(C(N)=O)c(N)c23)ccc1C(F)(F)F [Example 233]
5.00 to 7.00	4.52 to 4.70	–	NC(=O)c1sc2nc(NC3CC3)nc(-c3ccc(C(F)(F)F)cc3)c2c1N [Example 235]
5.00 to 7.00	4.22 to 4.52	–	NC(=O)c1sc2nc(NC3CC3)nc(-c3ccnc(Cl)c3)c2c1N [Example 236]

pIC50 (V600E mutant B-RAF)	pIC50 (A375 cells; Homo sapiens, A-375, 72 h)	pIC50 (A375 cells)	Compound
4.70 to 5.00	< 4.22	–	NC(=O)c1sc2nc(NC3CC3)nc(-c3ccnc(O)c3)c2c1N [Example 237]
5.00 to 7.00	4.22 to 4.52	–	NC(=O)c1sc2nc(NC3CC3)nc(-c3cccc([N+](=O)[O-])c3)c2c1N [Example 244]
–	< 4.22	–	NC(=O)c1sc2nc(NC3CC3)nc(-c3cccc(N)c3)c2c1N [Example 245]
4.70 to 5.00	< 4.22	–	NC(=O)c1sc2nc(NC3CC3)nc(-c3cccc(NC(=O)C(F)(F)F)c3)c2c1N [Example 246]
5.00 to 7.00	< 4.22	–	NC(=O)Cc1nc(-c2ccc(Cl)c(Cl)c2)c2c(N)c(C(N)=O)sc2n1 [Example 254]
5.00 to 7.00	< 4.22	–	NC(=O)c1sc2nc(CC(=O)O)nc(-c3ccc(Cl)c(Cl)c3)c2c1N [Example 255]
–	4.70 to 5.00	–	COc1cc(-c2nc(NC(C)(C)CO)nc3sc(C(N)=O)c(N)c23)cc(Cl)c1Cl [Example 263]
< 4.22	4.70 to 5.00	–	NC(=O)c1sc2ncnc(-c3cc4c(c(OCc5ccccc5)c3)CCO4)c2c1N [Example 266]
5.00 to 7.00	4.70 to 5.00	–	NC(=O)c1sc2ncnc(-c3cc(O)c4c(c3)OCC4)c2c1N [Example 267]
5.00 to 7.00	4.22 to 4.52	–	NC(=O)c1nc(-c2ccc(Cl)c(Cl)c2)c2c(N)c(C(N)=O)sc2n1 [Example 268]
5.00 to 7.00	4.70 to 5.00	–	CC(C)[C@@H](CO)Nc1nc(-c2ccc(Cl)c(Cl)c2)c2c(N)c(C(N)=O)sc2n1 [Example 272]
–	5.00 to 7.00	–	COc1cncc(-c2nc(N)nc3sc(C(N)=O)c(N)c23)c1 [Example 277]
4.70 to 5.00	4.22 to 4.52	–	NC(=O)c1sc2nc(NC3CC3)nc(Nc3ccccc3)c2c1N [Example 278]
4.22 to 4.52	5.00 to 7.00	–	NC(=O)c1sc2nc(NC3CC3)nc(Nc3ccc(Cl)c(Cl)c3)c2c1N [Example 279]
5.00 to 7.00	4.70 to 5.00	–	NC(=O)c1sc2nc(NC3(CO)CCC3)nc(-c3ccc(Cl)c(Cl)c3)c2c1N [Example 281]
–	4.70 to 5.00	–	COc1ccc(NC(=O)Nc2cccc(-c3ncnc4sc(C(N)=O)c(N)c34)c2)cc1 [Example 283]
4.22 to 4.52	4.70 to 5.00	–	COc1ccnc(-c2nc(NC(C)(C)CO)nc3sc(C(N)=O)c(N)c23)c1 [Example 284]
5.00 to 7.00	4.70 to 5.00	–	CCOc1nc(-c2cccc(C(F)F)c2)c2c(N)c(C(N)=O)sc2n1 [Example 285]
5.00 to 7.00	4.70 to 5.00	–	CC(C)(CO)Nc1nc(-c2cccc(C(F)F)c2)c2c(N)c(C(N)=O)sc2n1 [Example 286]
–	5.00 to 7.00	–	NC(=O)c1sc2ncnc(-c3cccc(Nc4nc5cc(C(F)(F)F)ccc5[nH]4)c3)c2c1N [Example 287]
5.00 to 7.00	4.70 to 5.00	–	NC(=O)c1sc2ncnc(-c3cccc(Nc4nc5cc(C(F)(F)F)ccc5o4)c3)c2c1N [Example 288]
–	4.70 to 5.00	–	NC(=O)c1sc2ncnc(-c3cccc([N+](=O)[O-])c3)c2c1N [Example 289]
–	4.70 to 5.00	–	NC(=O)c1sc2ncnc(-c3cccc(N)c3)c2c1N [Example 290]
5.00 to 7.00	4.70 to 5.00	–	NC(=O)c1sc2ncnc(-c3cccc(NC(=O)Nc4cccnc4)c3)c2c1N [Example 293]
–	4.70 to 5.00	–	NC(=O)c1sc2ncnc(-c3cccc(NC(=O)Nc4ccccn4)c3)c2c1N [Example 294]
